ChEMBL document CHEMBL1129891, “Synthesis and cytotoxic activity of alkylidene- and alkyl-substituted camptothecins” (Bioorg Med Chem Lett, 1997)

How the values were obtained:
L1210 = experiment: Concentration required to inhibit 50% of cell growth in L1210 murine leukemia cell line after 48 hr continuous treatment; assay type: functional, cell-based; conditions: Mus musculus, L1210, 48 h
DNA topoisomerase 1 = target: T1, DNA topoisomerase 1 (Homo sapiens, UniProt P11387); experiment: Concentration required to inhibit 50% relaxation of 250 ng of SV40 DNA obtained with 0.5 I.U topoisomerase I at 37 degrees C for 30 min
T1 sequence (P11387 whole entry): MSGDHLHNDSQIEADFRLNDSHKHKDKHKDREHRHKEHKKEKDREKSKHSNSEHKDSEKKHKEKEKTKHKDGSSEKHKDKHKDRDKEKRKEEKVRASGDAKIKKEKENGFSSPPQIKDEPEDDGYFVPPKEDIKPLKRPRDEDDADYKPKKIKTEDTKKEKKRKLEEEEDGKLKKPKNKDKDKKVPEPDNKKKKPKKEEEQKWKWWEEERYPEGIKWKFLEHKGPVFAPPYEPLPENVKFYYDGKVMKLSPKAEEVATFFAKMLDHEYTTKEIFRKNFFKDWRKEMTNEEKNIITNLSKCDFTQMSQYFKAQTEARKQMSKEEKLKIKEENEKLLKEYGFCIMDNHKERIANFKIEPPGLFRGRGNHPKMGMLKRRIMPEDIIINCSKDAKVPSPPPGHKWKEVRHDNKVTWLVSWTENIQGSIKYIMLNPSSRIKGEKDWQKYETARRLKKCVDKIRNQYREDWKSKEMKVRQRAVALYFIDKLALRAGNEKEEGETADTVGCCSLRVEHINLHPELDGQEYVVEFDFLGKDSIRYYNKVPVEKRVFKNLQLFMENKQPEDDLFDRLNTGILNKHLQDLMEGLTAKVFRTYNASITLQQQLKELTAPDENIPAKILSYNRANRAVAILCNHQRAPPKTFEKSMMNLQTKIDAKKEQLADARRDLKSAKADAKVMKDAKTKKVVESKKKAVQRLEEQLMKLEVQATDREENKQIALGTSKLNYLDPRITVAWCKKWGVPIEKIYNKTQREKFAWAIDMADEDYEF

Row | Compound | IC50 (L1210) | IC50 (DNA topoisomerase 1)
1 | CC[C@@]1(O)C(=O)OCc2c1cc1n(c2=O)Cc2cc3c(CC(NC(C)=O)C(=O)OC)cccc3nc2-1 (some centres undefined) | 183 nM | 11300 nM
2 | CC[C@@]1(O)C(=O)OCc2c1cc1n(c2=O)Cc2cc3c(CCc4ccccc4)cccc3nc2-1 | 16.3 nM | > 100000 nM
3 | CC[C@@]1(O)C(=O)OCc2c1cc1n(c2=O)Cc2cc3c(CCC(=O)OC)cccc3nc2-1 | 6.2 nM | 41800 nM
4 | C=Cc1cccc2nc3c(cc12)Cn1c-3cc2c(c1=O)COC(=O)[C@]2(O)CC | 7.5 nM | 4200 nM
5 | CC[C@@]1(O)C(=O)OCc2c1cc1n(c2=O)Cc2cc3c(/C=C(\NC(C)=O)C(=O)OC)cccc3nc2-1 | 1180 nM | 31900 nM
6 | CC[C@@]1(O)C(=O)OCc2c1cc1n(c2=O)Cc2cc3c(/C=C/c4ccccc4)cccc3nc2-1 | 15.8 nM | > 100000 nM
7 | CC[C@@]1(O)C(=O)OCc2c1cc1n(c2=O)Cc2cc3c(/C=C/C(N)=O)cccc3nc2-1 | 121 nM | 3200 nM
8 | CC[C@@]1(O)C(=O)OCc2c1cc1n(c2=O)Cc2cc3c(N)cccc3nc2-1 [9-AMINOCAMPTOTHECIN] |  | 1800 nM
9 | CC[C@@]1(O)C(=O)OCc2c1cc1n(c2=O)Cc2cc3cc(/C=C/C(=O)OC)ccc3nc2-1 | 62.3 nM | > 100000 nM
10 | CC[C@@]1(O)C(=O)OCc2c1cc1n(c2=O)Cc2cc3c(/C=C/C(=O)OC)cccc3nc2-1 | 7.6 nM | 6700 nM
